Data from ChEMBL document CHEMBL1201862, “PubChem BioAssay data set” (2004).
Active and inactive are the calls of the source.

Tests used:
[1] = biological target: T1, Corticotropin-releasing factor receptor 2/Corticotropin-releasing factor-binding protein (Homo sapiens, UniProt P24387+Q13324); assay: Dose Response confirmation of uHTS hits for small molecule antagonists of the CRF-binding protein and CRF-R2 receptor complex.; format: functional; conditions: read-out: IC50_Mean
T1 sequence (Q13324 whole entry): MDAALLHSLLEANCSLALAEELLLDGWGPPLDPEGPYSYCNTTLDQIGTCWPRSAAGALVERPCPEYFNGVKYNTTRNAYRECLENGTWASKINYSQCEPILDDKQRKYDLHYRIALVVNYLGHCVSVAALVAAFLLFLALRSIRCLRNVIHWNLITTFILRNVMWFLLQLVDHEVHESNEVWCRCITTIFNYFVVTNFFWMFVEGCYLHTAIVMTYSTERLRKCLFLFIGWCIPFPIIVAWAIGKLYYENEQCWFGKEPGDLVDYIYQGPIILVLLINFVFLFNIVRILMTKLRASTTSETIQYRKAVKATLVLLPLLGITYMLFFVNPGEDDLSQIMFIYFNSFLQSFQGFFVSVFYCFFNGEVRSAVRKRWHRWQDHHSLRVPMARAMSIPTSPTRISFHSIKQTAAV
T1 sequence (P24387 whole entry): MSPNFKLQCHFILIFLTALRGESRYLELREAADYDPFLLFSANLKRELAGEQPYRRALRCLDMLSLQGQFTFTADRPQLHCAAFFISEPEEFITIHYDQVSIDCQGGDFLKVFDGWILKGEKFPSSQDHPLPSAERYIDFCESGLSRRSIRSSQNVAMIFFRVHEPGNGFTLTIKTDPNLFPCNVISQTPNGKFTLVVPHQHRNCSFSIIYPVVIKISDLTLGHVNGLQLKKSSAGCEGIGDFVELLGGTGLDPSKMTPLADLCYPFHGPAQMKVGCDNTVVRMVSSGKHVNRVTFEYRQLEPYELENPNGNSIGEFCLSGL

[2] = biological target: T1, Corticotropin-releasing factor receptor 2/Corticotropin-releasing factor-binding protein; assay: activators of CRF receptor 2 with binding protein – uHTS hits, confirmation (AID 602473); format: functional; conditions: read-out: EC50_Mean
[3] = biological target: T2, Short transient receptor potential channel 4 (Mus musculus, UniProt Q9QUQ5); assay: block of DAMGO-driven TRPC4 calcium entry – cell-based, HEK293 TRPC4/mu-opioid, Fluo-4 calcium, dose response (AID 434942); format: functional;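 further: potency of inhibitors blocking the TRPC4 calcium response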
T2 sequence (Q9QUQ5 whole entry): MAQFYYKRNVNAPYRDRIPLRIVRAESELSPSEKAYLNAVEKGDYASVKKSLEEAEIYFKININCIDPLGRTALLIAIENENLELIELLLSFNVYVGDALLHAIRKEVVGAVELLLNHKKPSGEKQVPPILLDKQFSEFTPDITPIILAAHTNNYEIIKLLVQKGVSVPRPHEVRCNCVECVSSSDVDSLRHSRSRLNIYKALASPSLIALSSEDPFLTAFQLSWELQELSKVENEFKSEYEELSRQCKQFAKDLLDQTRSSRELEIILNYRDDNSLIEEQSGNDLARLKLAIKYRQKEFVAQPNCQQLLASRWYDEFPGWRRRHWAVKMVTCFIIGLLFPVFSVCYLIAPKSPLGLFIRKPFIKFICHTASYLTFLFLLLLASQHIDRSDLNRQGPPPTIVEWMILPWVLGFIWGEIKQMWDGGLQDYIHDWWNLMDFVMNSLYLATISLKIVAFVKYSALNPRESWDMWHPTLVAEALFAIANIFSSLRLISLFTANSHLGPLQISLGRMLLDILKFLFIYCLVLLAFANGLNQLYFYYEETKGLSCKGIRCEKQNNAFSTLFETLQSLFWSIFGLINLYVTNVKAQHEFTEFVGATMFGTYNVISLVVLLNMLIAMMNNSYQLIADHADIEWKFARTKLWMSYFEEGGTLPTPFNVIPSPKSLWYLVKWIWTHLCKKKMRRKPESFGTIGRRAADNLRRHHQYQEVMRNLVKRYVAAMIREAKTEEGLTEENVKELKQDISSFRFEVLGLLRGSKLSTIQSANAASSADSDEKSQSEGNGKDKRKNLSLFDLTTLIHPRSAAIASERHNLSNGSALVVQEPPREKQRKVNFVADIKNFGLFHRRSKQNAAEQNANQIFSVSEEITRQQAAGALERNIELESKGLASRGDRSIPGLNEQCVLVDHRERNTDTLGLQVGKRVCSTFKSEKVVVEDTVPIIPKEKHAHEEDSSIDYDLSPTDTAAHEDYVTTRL

[4] = viability of PTEN-deleted HCT116 cells – cell-based, HCT116 PTEN knockout, dose response (AID 1047); format: functional;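 further: HCT116 colon tumor cells with PTEN knocked out; cells exposed to compound for 60 hours before readout; potency for loss of cell viability measured by luminescence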
[5] = viability of HCT116 lacking mutant beta-catenin – cell-based, human colon tumor, dose response (AID 1045); format: functional;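 further: HCT116 colon tumor cells with beta catenin knocked out; cells exposed to compound for 60 hours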
Cytochrome P450 2C9 = Cytochrome P450 2C9 (Homo sapiens, UniProt P11712)
Protein RecA = biological target: T3, Protein RecA (Mycobacterium tuberculosis, UniProt P9WHJ3); assay: Fluorescence Cell-Free Homogeneous Dose Retest to Identify Inhibitors of RecA-Intein Splicing Activity. [Related pubchem assays (depositor defined):AID2097, AID2223, AID489010, AID492950]; format: functional
T3 sequence (P9WHJ3 whole entry): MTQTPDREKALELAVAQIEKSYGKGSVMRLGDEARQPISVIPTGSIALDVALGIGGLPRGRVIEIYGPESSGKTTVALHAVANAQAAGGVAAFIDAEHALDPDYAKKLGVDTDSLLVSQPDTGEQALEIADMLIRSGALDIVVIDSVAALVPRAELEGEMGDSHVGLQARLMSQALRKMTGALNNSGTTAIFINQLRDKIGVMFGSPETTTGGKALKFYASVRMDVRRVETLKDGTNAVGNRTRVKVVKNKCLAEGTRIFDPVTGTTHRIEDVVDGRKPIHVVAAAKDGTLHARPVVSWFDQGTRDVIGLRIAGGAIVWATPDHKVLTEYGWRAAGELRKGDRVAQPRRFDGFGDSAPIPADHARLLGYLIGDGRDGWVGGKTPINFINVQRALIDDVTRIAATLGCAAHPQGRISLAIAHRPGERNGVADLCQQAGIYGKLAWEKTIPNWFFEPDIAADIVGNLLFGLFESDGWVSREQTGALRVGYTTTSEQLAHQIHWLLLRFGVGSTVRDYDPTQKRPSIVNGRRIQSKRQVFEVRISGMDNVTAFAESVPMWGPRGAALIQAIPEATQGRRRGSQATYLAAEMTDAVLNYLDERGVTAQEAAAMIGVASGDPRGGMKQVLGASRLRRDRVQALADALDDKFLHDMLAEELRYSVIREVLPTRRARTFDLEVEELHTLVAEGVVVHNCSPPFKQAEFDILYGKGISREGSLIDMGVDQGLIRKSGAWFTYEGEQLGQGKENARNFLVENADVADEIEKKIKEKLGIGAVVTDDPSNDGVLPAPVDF

[6] = biological target: T4, Replicative DNA helicase DnaB (Mycobacterium tuberculosis, UniProt P9WMR3); assay: DnaB intein splicing inhibitors, dose response, biochemical, cell-free fluorescence (AID 449749); format: functional
T4 sequence (P9WMR3 whole entry): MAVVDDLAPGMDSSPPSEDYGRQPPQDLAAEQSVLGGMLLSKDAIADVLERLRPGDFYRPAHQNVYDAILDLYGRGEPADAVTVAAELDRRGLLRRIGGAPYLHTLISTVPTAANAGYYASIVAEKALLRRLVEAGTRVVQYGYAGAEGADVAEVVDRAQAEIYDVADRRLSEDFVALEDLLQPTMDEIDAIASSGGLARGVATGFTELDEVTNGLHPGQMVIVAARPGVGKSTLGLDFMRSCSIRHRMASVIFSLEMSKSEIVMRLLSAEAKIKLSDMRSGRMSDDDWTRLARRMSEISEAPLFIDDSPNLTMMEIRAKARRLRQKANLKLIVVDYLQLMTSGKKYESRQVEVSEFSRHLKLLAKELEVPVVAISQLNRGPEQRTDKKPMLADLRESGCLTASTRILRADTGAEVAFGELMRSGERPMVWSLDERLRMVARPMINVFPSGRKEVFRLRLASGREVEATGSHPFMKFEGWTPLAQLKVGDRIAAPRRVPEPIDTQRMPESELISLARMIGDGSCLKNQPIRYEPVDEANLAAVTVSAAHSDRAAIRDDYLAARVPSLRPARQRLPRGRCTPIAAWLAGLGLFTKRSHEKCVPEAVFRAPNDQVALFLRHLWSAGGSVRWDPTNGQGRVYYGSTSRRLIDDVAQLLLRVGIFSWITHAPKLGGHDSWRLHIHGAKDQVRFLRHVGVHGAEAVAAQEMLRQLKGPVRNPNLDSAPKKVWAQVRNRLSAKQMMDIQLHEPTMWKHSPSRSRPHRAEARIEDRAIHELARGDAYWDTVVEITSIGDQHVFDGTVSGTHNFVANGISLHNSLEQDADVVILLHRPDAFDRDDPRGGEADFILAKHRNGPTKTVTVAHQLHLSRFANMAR

[7] = NIH-3T3 fibroblast cytotoxicity, dose response, cytotoxicity control, cell-based, fluorescence, Alamar Blue, secondary assay (AID 2327); format: functional;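 further: NIH-3T3 mouse fibroblasts cultured with fluconazole at 8 µg/mL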
[8] = fluconazole-exposed Candida albicans growth modulators – fluorescence, retest, confirmation (AID 2467); format: functional, cell-based

Cytochrome P450 2C9, sequence (P11712 whole entry): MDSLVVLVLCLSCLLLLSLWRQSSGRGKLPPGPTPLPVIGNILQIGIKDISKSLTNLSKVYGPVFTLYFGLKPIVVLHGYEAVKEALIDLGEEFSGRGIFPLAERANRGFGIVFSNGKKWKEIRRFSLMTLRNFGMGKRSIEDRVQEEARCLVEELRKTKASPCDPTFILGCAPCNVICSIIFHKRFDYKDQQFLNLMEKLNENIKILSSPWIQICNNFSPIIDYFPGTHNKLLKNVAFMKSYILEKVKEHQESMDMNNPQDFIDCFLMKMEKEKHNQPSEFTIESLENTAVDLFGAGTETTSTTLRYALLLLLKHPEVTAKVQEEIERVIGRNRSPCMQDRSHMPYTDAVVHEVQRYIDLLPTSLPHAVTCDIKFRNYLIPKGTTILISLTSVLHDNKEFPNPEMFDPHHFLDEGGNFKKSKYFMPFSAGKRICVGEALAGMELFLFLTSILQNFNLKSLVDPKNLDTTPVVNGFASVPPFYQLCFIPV

| SMILES | IC50 [1] | EC50 [2] | EC50 [3] | further results |
| --- | --- | --- | --- | --- |
| COc1ccc(CCNC(=O)c2cccc3c2C(=O)N(C2CCCCC2)C3)cc1OC | 5.54 µM (active) | > 53 µM (inactive) |  |  |
| COc1ccc(C(CNc2ccc(C(F)(F)F)cn2)N(C)C)cc1OC (stereo not given) |  |  | 0.299 µM (active) |  |
| COc1ccc(C(=O)ON=C(N)Cc2ccc(Cl)cc2)cc1OC |  |  |  | EC50 [4]: 21.6 µM (active); EC50 [5]: 19.1 µM (active) |
| Cc1nn(C)c(C)c1NC(=O)CSc1nc(C2CC2)nc2c1cnn2-c1ccccc1 |  |  |  | EC50 [4]: 5.78 µM (active); EC50 [5]: 10.8 µM (active) |
| Cc1ccccc1N=C1N=C(S)N(c2ccccc2)C12CCCCC2 | > 47.1 µM (inactive) | > 53 µM (inactive) |  |  |
| Cc1ccc(C[n+]2cc(-c3ccc(Cl)cc3)n3c2CCC3)cc1 |  |  | 2.37 µM (active) |  |
| COc1ccc2c(c1)c(C(=O)O)c(C)n2-c1ccc(Cl)cc1 | > 47.1 µM (inactive) | > 53 µM (inactive) |  |  |
| CCn1c(S)nnc1CCNC(=O)c1ccccc1Cl | > 47.1 µM (inactive) | > 53 µM (inactive) |  | AC50 (Cytochrome P450 2C9): 1.58 µM (inconclusive) |
| Cc1sc2nc(CN(Cc3cccs3)C(=O)NC3CCCCC3)[nH]c(=O)c2c1C | 16.4 µM (active) | > 53 µM (inactive) |  |  |
| CN(C)C(=O)c1ccc2c(c1[N+](=O)[O-])C(=O)c1ccccc1C2=O |  |  |  | EC50 [4]: 87 µM (active); EC50 [5]: 105 µM (active); EC50 (Protein RecA): 558 nM (active); AC50 [6]: 57.9 µM (active) |
| O=C(O)CC(SCC(=O)Nc1ccc(Br)cc1)C(=O)O (stereo not given) | > 47.1 µM (inactive) | > 53 µM (inactive) |  |  |
| Cc1ccc(Cn2c(=N)n(CC(O)c3ccco3)c3ccccc32)cc1 (stereo not given) |  |  | 1.88 µM (active) |  |
| CC(C)c1noc2ncc(C(=O)c3cc(Cl)cc(Cl)c3O)cc12 |  |  |  | EC50 [7]: > 160 µM (inactive); EC50 [8]: 3.63 µM (active) |
| Cc1noc(NS(=O)(=O)c2ccc(NC(=O)CS(=O)(=O)c3ccccc3)cc2)c1C | > 47.1 µM (inactive) | > 53 µM (inactive) |  |  |
| CCOc1cc(-c2nc(-c3cc(OC)c(OC)c(OC)c3)no2)cc(OCC)c1OCC |  |  |  | EC50 [7]: > 160 µM (inactive); EC50 [8]: > 38 µM (not active) |
| C=CCSc1nc(-c2ccc(OCCC)cc2)n[nH]1 |  |  |  | EC50 [7]: > 150 µM (inactive); EC50 [8]: > 38 µM (not active) |

| SMILES | IC50 [1] | EC50 [2] | EC50 [3] | further results |
| --- | --- | --- | --- | --- |
| CCN(CC)C(=O)/C(=C/c1cn(S(=O)(=O)N(C)C)c2ccccc12)NC(=O)c1ccc(OC)cc1 | > 47.1 µM (inactive) | > 53 µM (inactive) |  |  |
| COc1ccc(C2NC(C(=O)O)Cc3c2[nH]c2ccccc32)cc1CN1CCN(c2ccc(F)cc2)CC1 (stereo not given) |  |  | 0.531 µM (active) |  |
| CCOC(=O)c1oc2ccccc2c1CN1CCCCC1 |  |  | 4.22 µM (active) |  |
| Clc1ccc(-n2nnnc2-c2cnc(-c3ccncc3)nc2-c2cccs2)cc1 |  |  |  | EC50 [4]: 16.9 µM (active); EC50 [5]: 21.1 µM (active) |
| CC12CCC(C(=O)NNc3ccc([N+](=O)[O-])cc3)(CC1=O)C2(C)C (stereo not given) |  |  |  | EC50 [7]: > 150 µM (inconclusive); EC50 [8]: > 38 µM (not active) |
| CCOC(=O)C1CCN(C2CCN(C(=O)c3oc4c(C)c(C)ccc4c3C)CC2)CC1 |  |  | 4.22 µM (active) |  |
| Cc1cc(-c2sccc2C)nc(-n2cccc2)n1 |  |  | 7.5 µM (active) |  |
| COc1cccc(C(=O)C2CCCN(Cc3cccn3-c3ccccn3)C2)c1 (stereo not given) |  |  | 6.68 µM (active) |  |
| COc1ccc(CCN=C(N)S)cc1OC | > 47.1 µM (inactive) | > 53 µM (inactive) |  |  |
| CC1CCC(NC(=O)c2ccc(/C=C3\Oc4ccccc4N(C)C3=O)cc2)CC1 (stereo not given) |  |  |  | EC50 [4]: 28 µM (active); EC50 [5]: 26.7 µM (active) |
| CC(=O)NC1=NN(C(C)=O)C(C)(c2ccccn2)S1 (stereo not given) | > 47.1 µM (inactive) | > 53 µM (inactive) |  |  |
| CN(Cc1cnn(C)c1)C(=O)c1ccc(OC2CCN(CCc3ccccc3)CC2)cc1 |  |  | 1.5 µM (active) |  |
| Cc1ccc(C(=O)C=Cc2cccc(C)c2)cc1 | > 47.1 µM (inactive) | > 53 µM (inactive) |  |  |
| CCCSC(=N)N/N=C/c1ccccc1O |  |  |  | EC50 [4]: 34.7 µM (active); EC50 [5]: 32.4 µM (active) |
| CCCOc1ccc(Br)cc1/C=N/O |  |  | 1.68 µM (active) |  |
